How the values were obtained:
rabbit serum PON3 = target: T1, rabbit serum PON3 (Oryctolagus cuniculus, UniProt Q9BGN0); test: Hydrolytic activity of purified rabbit serum PON3 with paraoxon, aromatic esters and lactones; type: biochemical; settings: for PON3 (rate of hydrolysis of substrate) / PON3 hydrolytic activity with substrate (in words): purified rabbit serum PON3; for PON3 (rate of hydrolysis of substrate): 25° C.; for PON1/PON3 Ratio: ratio of hydrolysis rates of PON1 and PON3
T1 construct: from tissue; host or cells: rabbit serum
T1 sequence (Q9BGN0 2-354 limits assumed): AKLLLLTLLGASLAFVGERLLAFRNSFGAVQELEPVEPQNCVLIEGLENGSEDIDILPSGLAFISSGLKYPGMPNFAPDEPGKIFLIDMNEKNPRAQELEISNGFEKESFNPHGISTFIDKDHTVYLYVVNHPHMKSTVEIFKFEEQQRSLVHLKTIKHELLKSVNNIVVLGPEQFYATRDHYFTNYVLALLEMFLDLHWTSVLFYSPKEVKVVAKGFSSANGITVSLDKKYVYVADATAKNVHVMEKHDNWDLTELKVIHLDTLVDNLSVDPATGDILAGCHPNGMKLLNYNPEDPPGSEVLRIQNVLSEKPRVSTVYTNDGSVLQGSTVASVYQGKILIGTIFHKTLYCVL
Method: (§1) Esterase activities with substrates: phenyl acetate, S-phenyl thioacetate, α-naphtyl acetate and paraoxon were measured as described by Kuo and La Du (Kuo and La Du, Drug Metab. Dispos., 23:335 [1995]; Qan et al., Drug Metab Dispos, 19:100-106 [1991]. For example, arylesterase activity is measured using a molar difference extinction coefficient (difference in extinction coefficients of phenol vs. phenol acetate) of 1,310 M^−1 cm^−1, at 270 nm with 1.0 mM phenyl acetate in 50 mM Tris/HCl (pH 8.0):1.0 mM CaCl2 buffer (Gan et al., supra). For the hydrolysis of thiophenyl acetate, the substrate is dissolved in methanol, and the reaction cuvettes contain 1.0 mM substrate in 50 mM Tris/HCl (pH 8.0):1.0 mM CaCl2 buffer. The product, thiophenol, reacts with 5,5′-dithiobis(2-nitrobenzoic acid), and activity is calculated from a molar difference extinction coefficient of 13,600 M^−1 cm^−1 at 412 nm (Augustinsson and Axenfors, Anal. Biochem., 48:428 [1972]). For the hydrolysis of α-naphtyl acetate, substrates are dissolved in ethylene glycol monomethyl ether, and the reaction cuvettes contain 0.5 mM substrate in 50 mM Tris/HCl (pH 8.0):1.0 mM CaCl2 buffer. Enzymatic activities are calculated from the molar extinction coefficients of 23,170 M^−1 cm^−1 at 235 nm. PON activity is measured with 1.0 mM paraoxon in 50 mM glycine:NaOH buffer (pH 10.5):1.0 mM CaCl2 with or without 1.0 M NaCl. Enzymatic activities were calculated from a molar extinction coefficient of 18,290 M^−1 cm^−1 at 412 nm (Gan et al., supra). All enzymatic assays are performed at 25° C. For each assay, 5 μl of purified PON (1.5-2.5 μg of enzyme protein) is added to an assay cuvette. For all substrates, one unit of enzymatic activity is defined as 1 μmol of substrate hydrolyzed/min.
(§2) Hydrolysis of aromatic lactones was monitored by the increase in UV absorbance at 270 nm (dihydrocoumarin), 274 nm (2-coumaranone), and 290 nm (homogentisic acid lactone). Lactones were purchased from Sigma. In a typical experiment a cuvette contained 1 mM substrate (from a […] stock solution, dissolved in methanol) in 50 mM Tris/HCl (pH 8.0), 1 mM CaCl2 and 5-20 μl enzyme source in a total volume of 1 ml. The molar difference extinction coefficients (difference in extinction coefficients of substrate and product) used to calculate the rate of hydrolysis were 1295, 876, and 816 M^−1 cm^−1 for dihydrocoumarin, 2-coumaranone and homogentisic acid lactone, respectively.
(§3) The hydrolysis of other lactones was followed by a calorimetric assay with phenol red (Billecke, et al., Chem Biol Interact, 119-120:251-256, [1999]). The reaction cuvette contained 1 mM substrate (from a 100 mM stock solution, dissolved in methanol) in 2 mM HEPES at starting pH 8.0, 1 mM CaCl2, 0.004% (106 μM) phenol red, 0.005% bovine albumin, and 5-20 μl enzyme solution in a total volume of 1 ml. The rate of acid production was followed by monitoring the increase in absorbance at 422 nm as the color changed from red to yellow. The rate of hydrolysis was derived from a calibration curve obtained using known amounts of HCl.
(§4) All the above assays (Sections, A, B, and C) were performed at 25° C. using a dual beam Cary 3E […] Spectrophotometer (Varian). Reference cuvettes containing the appropriate buffer plus substrate were used in each assay to correct for any spontaneous hydrolysis.

rabbit serum PON1 = target: T2, rabbit serum PON1 (Oryctolagus cuniculus, UniProt P27170); test: Hydrolytic activity of purified rabbit serum PON1 with paraoxon, aromatic esters and lactones; type: biochemical; settings: 25° C.
T2 construct: PON 1 was purified further by pooling the fractions with highest arylesterase activity from a second DEAE column; from tissue; host or cells: rabbit serum
T2 sequence (P27170 whole entry Y185T): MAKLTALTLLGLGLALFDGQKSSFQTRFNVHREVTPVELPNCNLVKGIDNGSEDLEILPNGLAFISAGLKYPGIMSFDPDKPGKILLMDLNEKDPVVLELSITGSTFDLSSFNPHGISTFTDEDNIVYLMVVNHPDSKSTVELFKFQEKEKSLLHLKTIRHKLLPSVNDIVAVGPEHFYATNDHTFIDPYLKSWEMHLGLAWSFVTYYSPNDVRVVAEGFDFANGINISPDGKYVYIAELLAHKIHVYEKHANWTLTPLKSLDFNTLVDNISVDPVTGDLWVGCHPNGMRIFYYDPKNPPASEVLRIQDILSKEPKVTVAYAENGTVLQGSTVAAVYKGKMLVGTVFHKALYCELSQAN
Method: as §1, §2, §3, §4

PON3 = target: T3, PON3 (Oryctolagus cuniculus, UniProt Q9BGN0); test: Hydrolysis of statin lactones by PON3; type: biochemical, rabbit
T3 construct: from tissue; host or cells: rabbit serum
T3 sequence (Q9BGN0 2-354 limits assumed): as the sequence (Q9BGN0 2-354 limits assumed) above
Method: The hydrolysis of the statin lactones (mevastatin, lovastatin and simvastatin) was analyzed by high performance liquid chromatography (HPLC) using a Beckman System Gold HPLC with a Model 126 Programmable Solvent Module, a Model 168 Diode Array Detector set at 238 nm, a Model 7125 Rheodyne manual injector valve with a 20 μl loop, and a Beckman ODS Ultrasphere column (C 18, 250×4.6 mm, 5 μm). Lovastatin (Mevacor) and simvastatin were purchased as 20 mg tablets from Merck, from which the lactones were extracted with chloroform, evaporated to dryness and redissolved in methanol. Mevastatin was purchased from Sigma.
In a final volume of 1 ml, 10-200 μl of enzyme solution and 10 μl of substrate solution in methanol (0.5 mg/ml) were incubated at 25° C. in 50 mM Tris/HCl (pH 7.6), 1 mM CaCl2. […]
Samples were eluted isocratically at a flow rate of 1.0 ml/min with a mobile phase consisting of the following: A=acetic acid/acetonitrile/water (2:249:249, v/v/v) and B=acetonitrile, in A/B ratios of 50/50, 45/55 and 40/60 for mevastatin, lovastatin and simvastatin, respectively. […] Response factors for the acid products were calculated from the peak heights after complete alkaline hydrolysis of the lactones in 0.02 M NAOH for 2-24 hours at 25° C.

Row | Compound | PON3 (rate of hydrolysis of substrate) (rabbit serum PON3) | PON1/PON3 Ratio (rabbit serum PON3) | PON1 (rate of hydrolysis of substrate) (rabbit serum PON1) [µmol/min/mg] | PON3 hydrolytic activity with substrate (in words) (rabbit serum PON3) | hydrolysis of lactone drug by PON3 (in words) (PON3)
1 | CCCCCCCC1CCCC(=O)O1 (stereo not drawn) [δ-Dodecalactone] | 98.2 µmol/min/mg | 1.8 | 179.4 | – | –
2 | CCOP(=O)(OCC)Oc1ccc([N+](=O)[O-])cc1 [Paraoxon] | <0.0075^1 μmol/min/mg | 638 | 4.76 | very poor substrates | –
3 | CC1CCCC(=O)O1 (stereo not drawn) [δ-Hexalactone] | 3.6 µmol/min/mg | 58 | 207 | – | –
4 | CC1CCC(=O)O1 (stereo not drawn) [γ-Valerolactone] | 3.0 µmol/min/mg | 26 | 78.4 | – | –
5 | CCCCC1CCC(=O)O1 (stereo not drawn) [γ-Octalactone] | 29 µmol/min/mg | 3.6 | 104.5 | – | –
6 | CCCCC1CCCC(=O)O1 (stereo not drawn) [δ-Nonalactone] | 44 µmol/min/mg | 3.4 | 142 | – | –
7 | δ-Undecalactone | 90 µmol/min/mg | 2.1 | 186.8 | – | –
8 | CC(=O)Oc1ccc2ccccc2c1 [β-Naphtyl Acetate] | 4.6 µmol/min/mg | 30 | 138.8 | – | –
9 | CC1=CCC(=O)O1 [α-Angelica lactone] | 3.4 µmol/min/mg | 52 | 175.1 | – | –
10 | CC[C@H](C)C(=O)O[C@H]1C[C@@H](C)C=C2C=C[C@H](C)[C@H](CC[C@@H]3C[C@@H](O)CC(=O)O3)[C@H]21 [lovastatin] | – | – | – | – | can also hydrolyse
11 | O=C1CCC(c2ccccc2)O1 (stereo not drawn) [γ-phenyl-γ-butyrolactone] | 20.4 µmol/min/mg | 10 | 203 | – | –
12 | CCCCCC1CCC(=O)O1 (stereo not drawn) [γ-Nonalactone] | 60 µmol/min/mg | 1.3 | 79.6 | – | –
13 | O=C1Cc2ccccc2O1 [2-Coumaronone] | 32.4 µmol/min/mg | 4.0 | 136.6 | – | –
14 | O=C1Oc2ccccc2C1Br (stereo not drawn) [α-Br-2-Coumaronone] | 2.8 µmol/min/mg | 97 | 270.1 | – | –
15 | CCCCCC1CCCC(=O)O1 (stereo not drawn) [δ-Decalactone] | 73 µmol/min/mg | 1.8 | 134.8 | – | –
16 | CC(=O)Oc1ccccc1 [Phenyl Acetate] | 1.0 µmol/min/mg | 769 | 768.7 | very poor substrates | –
17 | CCCCCCC1CCC(=O)O1 (stereo not drawn) [γ-Decalactone] | 50.2 µmol/min/mg | 1.8 | 92 | – | –
18 | CCCCCCCC1CCC(=O)O1 (stereo not drawn) [γ-Undecalactone] | 44.2 µmol/min/mg | 2 | 87.4 | – | –
19 | CCCCC1OC(=O)CC1C (stereo not drawn) [β-methyl-γ-octalactone] | 3 µmol/min/mg | 12 | 34.8 | – | –
20 | C=C1CCC(=O)O1 [γ-methylene-γ-butyrolactone] | 12 µmol/min/mg | 52 | 622 | – | –
21 | CCCC1CCC(=O)O1 (stereo not drawn) [γ-Heptalactone] | 8.6 µmol/min/mg | 12 | 107 | – | –

Reference: patent US6916472B2, “PON3 and uses thereof” (Regents of the University of Michigan, priority 2000, dated 2005)
